PubChem BioAssay AID248 (DTP/NCI, 2004)
Several values for one entry are separate records, joined by “and”; a condition that tells them apart may be missing. Equal entries are not always repeated. Toxic doses and inconclusive results are not listed. Rule as the data show it: active = T/C of 150% or more; inactive = T/C below 125%.

Test system: L1210 leukemia ip in BDF1 mice, survival T/C
Assay: NCI In Vivo Anticancer Drug Screen. Data for tumor model L1210 Leukemia (intraperitoneal) in B6D2F1 (BDF1) mice
Conditions: endpoint: mean survival time, higher = longer survival
Procedure, shortened: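 Mice bearing the transplanted tumor received compound or vehicle. Survival of the treated group was divided by that of the vehicle-treated control group to give the ratio.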

[1] = dose: 100.0 mg/kg/injection, schedule: Q04DX003 (ip), vehicle: saline with Tween-80
[2] = dose: 200.0 mg/kg/injection, schedule: Q04DX003 (ip), vehicle: saline with Tween-80
[3] = dose: 400.0 mg/kg/injection, schedule: Q04DX003 (ip), vehicle: saline with Tween-80
[4] = dose: 100.0 mg/kg/injection, schedule: Q01DX009 (ip), vehicle: Klucel (hydroxypropylcellulose) (HPC)
[5] = dose: 100.0 mg/kg/injection, schedule: Q04DX003 (ip), vehicle: Klucel (hydroxypropylcellulose) (HPC)
[6] = dose: 200.0 mg/kg/injection, schedule: Q01DX009 (ip), vehicle: Klucel (hydroxypropylcellulose) (HPC)
[7] = dose: 200.0 mg/kg/injection, schedule: Q04DX003 (ip), vehicle: Klucel (hydroxypropylcellulose) (HPC)
[8] = dose: 400.0 mg/kg/injection, schedule: Q01DX009 (ip), vehicle: Klucel (hydroxypropylcellulose) (HPC)
[9] = dose: 400.0 mg/kg/injection, schedule: Q04DX003 (ip), vehicle: Klucel (hydroxypropylcellulose) (HPC)
[10] = dose: 50.0 mg/kg/injection, schedule: Q01DX009 (ip), vehicle: Klucel (hydroxypropylcellulose) (HPC)

Measured: T/C

C/C=C\c1ccc(OC(=O)NCCC)c(OC)c1
inactive: dose: 100.0 mg/kg/injection, schedule: Q01DX009 (ip), vehicle: saline with Tween-80 95 % of control and 97 % of control | dose: 100.0 mg/kg/injection, schedule: Q04DX002 (ip), vehicle: Klucel (hydroxypropylcellulose) (HPC) 100 % of control | dose: 100.0 mg/kg/injection, schedule: Q04DX002 (ip), vehicle: saline with Tween-80 102 % of control and 106 % of control | [1] 97 % of control | dose: 200.0 mg/kg/injection, schedule: Q01DX009 (ip), vehicle: saline with Tween-80 95 % of control and 97 % of control | dose: 200.0 mg/kg/injection, schedule: Q04DX002 (ip), vehicle: Klucel (hydroxypropylcellulose) (HPC) 113 % of control | dose: 200.0 mg/kg/injection, schedule: Q04DX002 (ip), vehicle: saline with Tween-80 105 % of control and 112 % of control | [2] 87 % of control | dose: 400.0 mg/kg/injection, schedule: Q01DX009 (ip), vehicle: saline with Tween-80 97 % of control | dose: 400.0 mg/kg/injection, schedule: Q04DX002 (ip), vehicle: Klucel (hydroxypropylcellulose) (HPC) 95 % of control | dose: 400.0 mg/kg/injection, schedule: Q04DX002 (ip), vehicle: saline with Tween-80 94 % of control and 106 % of control | [3] 102 % of control

CCC(C)(C)c1cc(Sc2cc(C(C)(C)CC)cc(C(C)(C)CC)c2O)c(O)c(C(C)(C)CC)c1
inactive: dose: 100.0 mg/kg/injection, schedule: Q04DX003 (ip), vehicle: saline 109 % of control | dose: 200.0 mg/kg/injection, schedule: Q04DX003 (ip), vehicle: saline 100 % of control | dose: 400.0 mg/kg/injection, schedule: Q04DX003 (ip), vehicle: saline 88 % of control

O=C(O)C1C(Cl)C(Cl)C1C(=O)O (centres undefined)
inactive: dose: 75.0 mg/kg/injection, schedule: Q01DX001 (ip), vehicle: saline 104 % of control | dose: 150.0 mg/kg/injection, schedule: Q01DX001 (ip), vehicle: saline 101 % of control | dose: 300.0 mg/kg/injection, schedule: Q01DX001 (ip), vehicle: saline 96 % of control

O=C(c1ccccc1)c1cc(Cl)ccc1N1C(=O)C=CC1=O
inactive: dose: 25.0 mg/kg/injection, schedule: Q04DX002 (ip), vehicle: saline with Tween-80 90 % of control

COC1OC(COS(C)(=O)=O)C(O)C(O)C1OS(C)(=O)=O (centres undefined)
inactive: [4] 109 % of control | [5] 106 % of control | [6] 95 % of control | [7] 102 % of control | [8] 111 % of control | [9] 102 % of control

C(=NCCc1ccccc1)c1ccccc1B1OB(c2ccccc2C=NCCc2ccccc2)OB(c2ccccc2C=NCCc2ccccc2)O1
inactive: [4] 97 % of control | [5] 91 % of control | [6] 97 % of control | [7] 89 % of control | [8] 102 % of control | [9] 94 % of control

Cc1[nH]c(=O)nc(Br)c1[N+](=O)[O-]
inactive: [10] 101 % of control | [4] 107 % of control | [5] 97 % of control | [6] 98 % of control | [7] 95 % of control

O=[N+]([O-])c1nncs1
inactive: dose: 6.25 mg/kg/injection, schedule: Q04DX003 (ip), vehicle: saline 104 % of control | dose: 12.5 mg/kg/injection, schedule: Q04DX003 (ip), vehicle: saline 98 % of control | dose: 25.0 mg/kg/injection, schedule: Q04DX003 (ip), vehicle: saline 101 % of control

C#CCN1C(=O)C(c2ccccc2)C2(CCN(C)CC2)C1=O (centres undefined)
inactive: dose: 100.0 mg/kg/injection, schedule: Q01DX001 (ip), vehicle: saline with Tween-80 105 % of control | dose: 200.0 mg/kg/injection, schedule: Q01DX001 (ip), vehicle: saline with Tween-80 108 % of control

CC(C)(C)NC/C(=C\c1ccccc1)C(=O)c1ccccc1
inactive: dose: 5.0 mg/kg/injection, schedule: Q01DX001 (ip), vehicle: saline 98 % of control | dose: 10.0 mg/kg/injection, schedule: Q01DX001 (ip), vehicle: saline 101 % of control | dose: 20.0 mg/kg/injection, schedule: Q01DX001 (ip), vehicle: saline 98 % of control | dose: 25.0 mg/kg/injection, schedule: Q01DX009 (ip), vehicle: Klucel (hydroxypropylcellulose) (HPC) 100 % of control | dose: 40.0 mg/kg/injection, schedule: Q01DX001 (ip), vehicle: saline 93 % of control | [10] 98 % of control | dose: 80.0 mg/kg/injection, schedule: Q01DX001 (ip), vehicle: saline 95 % of control | [4] 95 % of control | [5] 94 % of control | [1] 112 % of control | [7] 91 % of control | [9] 96 % of control

COCc1ccc(C(=O)O)cc1
inactive: dose: 100.0 mg/kg/injection, schedule: Q01DX009 (ip), vehicle: gum acacia 101 % of control | dose: 200.0 mg/kg/injection, schedule: Q01DX009 (ip), vehicle: gum acacia 97 % of control | dose: 400.0 mg/kg/injection, schedule: Q01DX009 (ip), vehicle: gum acacia 101 % of control

CCOP(=S)(OCC)SCc1ccccc1
inactive: [1] 97 % of control | [2] 98 % of control | [3] 106 % of control
